Results as given in patent publication US9708334B2, “Substituted 2,4,5,6-tetrahydropyrrolo[3,4-c]pyrazole and 4,5,6,7-tetrahydro-2H-pyrazolo[4,3-c]pyridine compounds as GlyT1 inhibitors” (DART NEUROSCIENCE (CAYMAN) LTD., priority 2014, dated 2017).

Target: T1, GlyT1 (Homo sapiens, UniProt P48067)
T1 construct: expressed in transfected cells
T1 sequence (P48067 1-706): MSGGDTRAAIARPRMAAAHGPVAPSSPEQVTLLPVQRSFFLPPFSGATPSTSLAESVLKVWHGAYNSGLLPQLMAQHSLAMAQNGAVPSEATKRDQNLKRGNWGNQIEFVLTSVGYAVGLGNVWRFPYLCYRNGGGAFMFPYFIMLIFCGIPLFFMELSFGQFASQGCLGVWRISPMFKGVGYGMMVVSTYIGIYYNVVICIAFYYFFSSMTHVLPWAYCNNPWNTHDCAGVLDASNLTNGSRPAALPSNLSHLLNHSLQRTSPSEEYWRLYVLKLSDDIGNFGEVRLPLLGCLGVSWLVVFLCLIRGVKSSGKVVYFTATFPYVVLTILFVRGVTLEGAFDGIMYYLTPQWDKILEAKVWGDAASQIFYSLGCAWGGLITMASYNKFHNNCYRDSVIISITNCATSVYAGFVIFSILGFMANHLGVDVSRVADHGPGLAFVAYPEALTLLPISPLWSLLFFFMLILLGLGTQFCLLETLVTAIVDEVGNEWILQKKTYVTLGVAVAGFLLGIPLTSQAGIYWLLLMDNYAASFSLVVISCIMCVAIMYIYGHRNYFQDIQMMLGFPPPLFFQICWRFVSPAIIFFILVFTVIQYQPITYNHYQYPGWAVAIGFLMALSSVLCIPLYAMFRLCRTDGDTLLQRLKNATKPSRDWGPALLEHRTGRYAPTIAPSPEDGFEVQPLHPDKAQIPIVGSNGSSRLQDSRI
Assay: Glycine Transporter 1 (GlyT1) uptake assay, scintillation proximity assay of [14C]-glycine uptake
Assay type: cell-based
Conditions: SPA, four parameter logistic fit, read-out: GlyT1 (pIC50) (converted)
Method in brief: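 [14C]-glycine uptake read by scintillation proximity on a plate counter. IC50 from four-parameter logistic fit of dose-response data.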

Row | IC50 [nM] | SMILES
1 | 100 to 1000 | CC[C@H](C)Cn1cc2c(n1)CN(C(=O)c1cc(C#N)ccc1O[C@@H](C)C(F)(F)F)C2 [Example 418, 3-{2-[(2S)-2-Methylbutyl]-2H 4H 5H 6H-pyrrolo[3,4-c]pyrazole-5-carbonyl}-4-{[(2S)-1 1 1-trifluoropropan-2-yl]oxy}benzonitrile]
2 | 100 to 1000 | COc1c(C#N)ccc(C2(F)CCOCC2)c1C(=O)N1CCc2nn(-c3ccc(F)cc3)cc2C1 [Example 492]
3 | < 100 | Cc1ccc(F)c(-n2cc3c(n2)CN(C(=O)c2cc(S(C)(=O)=O)ccc2OC(C)C)C3)c1 [Example 130, 2-(2-Fluoro-5-methylphenyl)-5-[5-methanesulfonyl-2-(propan-2-yloxy)benzoyl]-2H 4H 5H 6H-pyrrolo[3,4-c]pyrazole]
4 | 100 to 1000 | COCCCn1cc2c(n1)CN(C(=O)c1cc(C#N)ccc1O[C@@H](C)C(F)(F)F)C2 [Example 393, 3-[2-(3-Methoxypropyl)-2H 4H 5H 6H-pyrrolo[3,4-c]pyrazole-5-carbonyl]-4-{[(2S)-1 1 1-trifluoropropan-2-yl]oxy}benzonitrile]
5 | < 100 | COc1c(C#N)ccc(OCC2CC2)c1C(=O)N1Cc2cn(-c3ccc(F)cn3)nc2C1 [Example 318, 4-(Cyclopropylmethoxy)-3-[2-(5-fluoropyridin-2-yl)-2H 4H 5H 6H-pyrrolo[3,4-c]pyrazole-5-carbonyl]-2-methoxybenzonitrile]
6 | < 100 | CS(=O)(=O)c1ccc(C2CCCC2)c(C(=O)N2Cc3cn(-c4ccc(F)cc4)nc3C2)c1 [Example 350, 5-(2-Cyclopentyl-5-methanesulfonylbenzoyl)-2-(4-fluorophenyl)-2H 4H 5H 6H-pyrrolo[3,4-c]pyrazole]
7 | < 100 | C[C@H](Oc1ccc(C#N)c(Cl)c1C(=O)N1Cc2cn(-c3ncccc3F)nc2C1)C(F)(F)F [Example 262, 2-Chloro-3-[2-(3-fluoropyridin-2-yl)-2H 4H 5H 6H-pyrrolo[3,4-c]pyrazole-5-carbonyl]-4-{[(2S)-1 1 1-trifluoropropan-2-yl]oxy}benzonitrile]
8 | < 100 | C[C@H](Oc1ccc(C#N)c(Cl)c1C(=O)N1Cc2cn(-c3ccc(F)cc3)nc2C1)C(F)(F)F [Example 249, 2-Chloro-3-[2-(4-fluorophenyl)-2H 4H 5H 6H-pyrrolo[3,4-c]pyrazole-5-carbonyl]-4-{[(2S)-1 1 1-trifluoropropan-2-yl]oxy}benzonitrile]
9 | < 100 | COc1c(C#N)ccc(OCC(F)F)c1C(=O)N1Cc2cn(-c3cncc(F)c3)nc2C1 [Example 331, 4-(2 2-Difluoroethoxy)-3-[2-(5-fluoropyridin-3-yl)-2H 4H 5H 6H-pyrrolo[3,4-c]pyrazole-5-carbonyl]-2-methoxybenzonitrile]
10 | < 100 | Cc1cc(-n2cc3c(n2)CN(C(=O)c2cc(C#N)ccc2OC(C)(C)C(F)(F)F)C3)ccn1 [Example 542, 3-[2-(2-Methylpyridin-4-yl)-2H 4H 5H 6H-pyrrolo[3,4-c]pyrazole-5-carbonyl]-4-[(1 1 1-trifluoro-2-methylpropan-2-yl)oxy]benzonitrile]
11 | < 100 | CCC(CC)Oc1ccc(C#N)c(OC)c1C(=O)N1Cc2cn(-c3ccc(F)cc3)nc2C1 [Example 518, 3-[2-(4-Fluorophenyl)-2H 4H 5H 6H-pyrrolo[3,4-c]pyrazole-5-carbonyl]-2-methoxy-4-(pentan-3-yloxy)benzonitrile]
12 | 100 to 1000 | C[C@H](Oc1ccc(C#N)cc1C(=O)N1Cc2cn(CC3CC(F)(F)C3)nc2C1)C(F)(F)F [Example 462, 3-{2-[(3 3-Difluorocyclobutyl)methyl]-2H 4H 5H 6H-pyrrolo[3,4-c]pyrazole-5-carbonyl}-4-{[(2S)-1 1 1-trifluoropropan-2-yl]oxy}benzonitrile]
13 | < 100 | CS(=O)(=O)c1ccc(OCC2CC2)c(C(=O)N2Cc3cn(-c4ccccc4F)nc3C2)c1 [Example 119, 5-[2-(Cyclopropylmethoxy)-5-methanesulfonylbenzoyl]-2-(2-fluorophenyl)-2H 4H 5H 6H-pyrrolo[3,4-c]pyrazole]
14 | < 100 | C[C@H](Oc1ccc(C#N)c(Cl)c1C(=O)N1Cc2cn(-c3cnn(C)c3)nc2C1)C(F)(F)F [Example 279, 2-Chloro-3-[2-(1-methyl-1H-pyrazol-4-yl)-2H 4H 5H 6H-pyrrolo[3,4-c]pyrazole-5-carbonyl]-4-{[(2S)-1 1 1-trifluoropropan-2-yl]oxy}benzonitrile]
15 | < 100 | CC(C)Oc1ccc(S(C)(=O)=O)cc1C(=O)N1Cc2cn(-c3cc(Cl)ccc3F)nc2C1 [Example 62, 2-(5-Chloro-2-fluorophenyl)-5-[5-methanesulfonyl-2-(propan-2-yloxy)benzoyl]-2H 4H 5H 6H-pyrrolo[3,4-c]pyrazole]
16 | 100 to 1000 | COc1c(C#N)ccc(OCC2(C)COC2)c1C(=O)N1Cc2cn(-c3ccc(F)c(C)n3)nc2C1 [Example 536, 3-[2-(5-Fluoro-6-methylpyridin-2-yl)-2H 4H 5H 6H-pyrrolo[3,4-c]pyrazole-5-carbonyl]-2-methoxy-4-[(3-methyloxetan-3-yl)methoxy]benzonitrile]
17 | < 100 | C[C@H](Oc1ccc(C#N)cc1C(=O)N1Cc2cn(C3CCOCC3)nc2C1)C(F)(F)F [Example 412, 3-[2-(Oxan-4-yl)-2H 4H 5H 6H-pyrrolo[3,4-c]pyrazole-5-carbonyl]-4-{[(2S)-1 1 1-trifluoropropan-2-yl]oxy}benzonitrile]
18 | < 100 | CCS(=O)(=O)c1ccc(-c2ccccc2)c(C(=O)N2Cc3cn(-c4ccnc(C)c4)nc3C2)c1 [Example 567, 4-{5-[5-(Ethanesulfonyl)-2-phenylbenzoyl]-2H 4H 5H 6H-pyrrolo[3,4-c]pyrazol-2-yl}-2-methylpyridine]
19 | < 100 | CC(C)Oc1ccc(S(C)(=O)=O)cc1C(=O)N1Cc2cn(-c3ccc(F)c(F)c3)nc2C1 [Example 2, (2-(3,4-Difluorophenyl)pyrrolo[3,4-c]pyrazol-5(2H,4H,6H)-yl)(2-isopropoxy-5-(methylsulfonyl)phenyl)methanone]
20 | 1000 to 10000 | CC(Oc1ccc(C#N)c(Cl)c1C(=O)N1Cc2cn(-c3ccc(F)cc3)nc2C(C)(C)C1)C(F)(F)F (centres unmarked) [Example 191, 2-Chloro-3-[2-(4-fluorophenyl)-7 7-dimethyl-2H 4H 5H 6H 7H-pyrazolo[4,3-c]pyridine-5-carbonyl]-4-[(1 1 1-trifluoropropan-2-yl)oxy]benzonitrile]
21 | < 100 | COc1c(C#N)ccc(OCC(F)F)c1C(=O)N1Cc2cn(-c3ccccc3)nc2C1 [Example 329, 4-(2 2-Difluoroethoxy)-2-methoxy-3-{2-phenyl-2H 4H 5H 6H-pyrrolo{3,4-c]pyrazole-5-carbonyl}benzonitrile]
22 | 1000 to 10000 | CC(Oc1ccc(S(C)(=O)=O)cc1C(=O)N1CCc2n[nH]c(-c3ccccc3)c2C1)C(F)(F)F (centres unmarked) [Example 573, 5-{5-Methanesulfonyl-2-[(1 1 1-trifluoropropan-2-yl)oxy]benzoyl}-3-phenyl-2H 4H 5H 6H 7H-pyrazolo[4,3-c]pyridine]
23 | < 100 | CCS(=O)(=O)c1ccc(OC(C)C)c(C(=O)N2Cc3cn(-c4ccc(F)c(C(F)F)c4)nc3C2)c1 [Example 82, 2-[3-(Difluoromethyl)-4-fluorophenyl]-5-[5-(ethanesulfonyl)-2-(propan-2-yloxy)benzoyl]-2H 4H 5H 6H-pyrrolo[3,4-c]pyrazole]
24 | 100 to 1000 | CC(Oc1ccc(C(N)=O)c(Cl)c1C(=O)N1CCc2nn(-c3ccc(F)cc3)cc2C1)C(F)(F)F (centres unmarked) [Example 196, 2-Chloro-3-[2-(4-fluorophenyl)-2H 4H 5H 6H 7H-pyrazolo[4,3-c]pyridine-5-carbonyl]-4-[(1 1 1-trifluoropropan-2-yl)oxy]benzamide]
25 | < 100 | CS(=O)(=O)c1ccc(N2CCC(F)(F)CC2)c(C(=O)N2Cc3cn(-c4ccc(F)cn4)nc3C2)c1 [Example 120, 2-{5-[2-(4 4-Difluoropiperidin-1-yl)-5-methanesulfonylbenzoyl]-2H 4H 5H 6H-pyrrolo[3,4-c]pyrazol-2-yl}-5-fluoropyridine]
26 | 100 to 1000 | COc1c(C#N)ccc(O[C@@H](C)C(F)(F)F)c1C(=O)N1CCc2nn(-c3ccc(F)cn3)cc2C1 [Example 225, 3-[2-(5-Fluoropyridin-2-yl)-2H 4H 5H 6H 7H-pyrazolo[4,3-c]pyridine-5-carbonyl]-2-methoxy-4-{[(2S)-1 1 1-trifluoropropan-2-yl]oxy}benzonitrile]
27 | < 100 | COc1c(C#N)ccc(OCC(F)(F)F)c1C(=O)N1CCc2nn(-c3ccncc3)cc2C1 [Example 156, 2-Methoxy-3-[2-(pyridin-4-yl)-2H 4H 5H 6H 7H-pyrazolo[4,3-c]pyridine-5-carbonyl]-4-(2 2 2-trifluoroethoxy)benzonitrile]
28 | 100 to 1000 | CC(C)(C)COc1ccc(C#N)c(Cl)c1C(=O)N1CCc2nn(-c3ccccc3)cc2C1 [Example 503, 2-Chloro-4-(2 2-dimethylpropoxy)-3-{2-phenyl-2H 4H 5H 6H 7H-pyrazolo[4,3-c]pyridine-5-carbonyl}benzonitrile]
29 | 1000 to 10000 | C[C@H](Oc1ccc(C#N)cc1C(=O)N1Cc2cnn(Cc3ccccc3)c2C1)C(F)(F)F [Example 383]
